Test results published in US6168934A, “Oligosaccharide enzyme substrates and inhibitors: methods and compositions” (The Scripps Research Institute, priority 1998, dated 2001).
Blank lines part the entries; values can stand above or below the compound they belong to.

Columns and labels:
[1] = target: α-Glucosidase (Brewer's Yeast); experiment: Glycosidase inhibition, α-glucosidase (BY); assay type: biochemical; settings: p-nitrophenyl α-D-glucoside, PIPES-NaOAc buffer pH 6.5
From the text: (§1) Materials: All of the buffers, enzymes, and substrates were purchased from Sigma and used as received. These included piperazine-N,N'-bis (2-ethanesulfonic acid) (PIPES), sodium acetate (NaOAc), ethylenediaminetetraacetic acid (EDTA), β-D-glucosidase (from sweet almond), p-nitrophenyl β-D-glucoside, p-nitrophenyl α-D-glucosidase, p-nitrophenyl α-D-glucoside, β-N-acetyl-D-glucosaminedase, p-nitrophenyl β-N-acetyl-D-glucosaminide, α-D-mannosidase and p-nitrophenyl α-D-mannoside.
(§2) (b) PIPES-NaOAc buffer (0.01 M PIPES, 0.2 M NaOAc and 0.01 mM EDTA, pH 6.5). This buffer was prepared according to the literature procedure [Dale et al., Biochemistry, 24:3530 (1985)].
(d) α-D-Glucosidase: 1.5 mg of solid protein (70 units/mg) were dissolved in 1 mL PIPES-NaOAc buffer solution and used for assays without further dilution.
(§3) (g) Substrate solutions: all substrates were dissolved in the corresponding buffer solution for enzymatic assay.
(§4) For each inhibitor, five inhibitor concentrations, ranging from zero to three times Ki, were generally used to determine the Ki value. […] The amount of enzyme added in each assay was adjusted so that less than 10 percent of the substrate, with its lowest substrate concentration, would be consumed within 45 seconds. Since all of the substrates have p-nitrophenol as leaving group, the assays were monitored at 400 nanometers (nm), where the molecular extinction coefficient, ε, was calibrated to be 3204.5 M^-1 cm^-1 at pH 6.5. The following illustrates the detailed procedure.
(§5) To a 1 mL disposable cuvette were added 950 microliters (μL) of the NaOAc-PIPES buffer solution, 20 μL of the inhibitor solution and 20 μL of the p-nitrophenyl β-D-glucoside solution (100 mM in PIPES-NaOAc buffer, pH 6.5). The solution was well mixed and 20 μL of the β-D-glucosidase solution were injected into the cuvette to start the reaction. The reaction was monitored at 400 nm on a Beckman DU-70 photospectrometer for 45 seconds and the initial hydrolysis rate was calculated. The same procedure was repeated with five other substrate concentrations. […]

[2] = target: β-Glucosidase (Sweet Almond); experiment: Glycosidase inhibition, β-glucosidase (SA); assay type: biochemical; settings: p-nitrophenyl β-D-glucoside, PIPES-NaOAc buffer pH 6.5
From the text: as §1, §2
(c) β-D-Glucosidase: The stock enzyme solution was prepared by dissolving 15 mg of solid protein (4 units/mg) in 1 mL PIPES-NaOAc buffer solution. This stock enzyme solution was diluted 5-fold for the enzymatic assay.
as §3, §4
as §5, with “calculated.” for “calculated. The same procedure was repeated with five other substrate concentrations.”

[3] = target: T1, fucosyl α1,3/1,4 transferase (FucT; EC 2.4.1.65), recombinant (Homo sapiens, UniProt P21217); experiment: Fucosyltransferase inhibition studies (IC50); assay type: biochemical; settings: 2 mM N-acetyllactosamine; for inhibitory effect: up to concentrations of 50 mg/mL
T1 construct: gift of Dr. J. B. Lowe, University of Michigan
T1 sequence (P21217 1-361): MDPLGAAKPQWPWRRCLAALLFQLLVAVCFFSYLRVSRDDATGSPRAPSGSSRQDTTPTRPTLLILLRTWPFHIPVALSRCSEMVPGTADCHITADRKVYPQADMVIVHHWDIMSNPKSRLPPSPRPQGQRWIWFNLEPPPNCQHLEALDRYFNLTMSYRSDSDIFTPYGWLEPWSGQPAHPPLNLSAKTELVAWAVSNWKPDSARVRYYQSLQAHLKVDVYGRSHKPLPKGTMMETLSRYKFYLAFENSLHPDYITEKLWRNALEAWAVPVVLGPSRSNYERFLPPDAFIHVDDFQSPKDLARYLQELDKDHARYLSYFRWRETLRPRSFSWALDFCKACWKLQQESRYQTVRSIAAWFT
Method: For other studies, such as those using a recombinant fucosylα1,3/4transferase (EC 2.4.1.65) whose results are shown in Table 1a, a stock mixture containing 0.25 mM ^14 C-GDP-fucose (5000 cpm/μL), 6.25 mM ATP, 25 mM MnCl2 are 62.5 mM cacodylate buffer, pH 6.2, was admixed fresh on the day of use, and stored on ice. To that solution, Fuc T was added immediately before use, and the reaction was initiated by the combination of 16 μL of that mixture with 4 μL of 100 mM acceptor substrate. The resulting admixture was then incubated at 37° C. for 30-240 minutes, depending upon the acceptor substrate (reactant compound) under study.
In this equation, m=slope and b=y-intercept.
Percent inhibition=m([inhibitor])+b equation 2

[4] = test system: Nc1ccn([C@@H]2O[C@H](COP(=O)(O)OP(=O)(O)OP(=O)(O)O)[C@@H](O)[C@H]2O)c(=O)n1; experiment: purified protein, by the assay type; settings: other: pH 9.0, 37° C.
Method: (§10) The activity of the native or the modified CMP-NeuAc synthetase was assayed using a thiobarbituric acid method described by Vann et al., J. Biol. Chem., 262:17556 (1987). […] After the mixture was incubated at 37° C. for 30 minutes, 50 mL of 1.6 M NaBH4 was added to destroy excess NeuAc, and the mixture was heated at room temperature for an additional 15 minutes. The mixture was then put in the ice bath and 50 mL of H3 PO4 were added to destroy NaBH4.
(§11) The resulting mixture was kept at zero degrees C for five minutes then incubated at 37° C. for 10 minutes to cleave the phosphoester bond of the formed CMP-NeuAc. The free NeuAc was oxidized with 50 mL of 0.2 M NaIO4 at room temperature for 10 minutes, and 400 mL of 4 percent NaAsO2 in 0.5 N HCl were added. […] After the solution was cooled, 1 mL of the solution was taken out and mixed with 1 mL of cyclohexanone. That mixture was shaken and centrifuged, and the upper layer was taken for measurement at 549 nm (e=4.11 mM^-1 cm^-1).
(§12) where A is [CTP], B is [NeuAc], Ka and Kb are the Michaelis constants for CTP and NeuAc, respectively, and Kia is the dissociation constant (or inhibition constant) for CTP.

[5] = target: β-galactosidase (EC 3.2.1.23 from E. coli) (Escherichia coli, UniProt P00722); experiment: Inhibition of β-galactosidase hydrolysis of p-nitrophenyl β-galactoside; assay type: biochemical; settings: p-nitrophenyl β-galactoside hydrolysed at the same rate with and without azasugar; concentration not given
From the text: Not all of the monosaccharide acceptors of the present invention are suitable substrates for β-galactosidase. For example, when Compound 3 or 4 from Table 2 are used as a substrate, no product was obtained.

[6] = test system: CC(=O)N[C@H]1[C@H]([C@H](O)[C@H](O)CO)OC(O)(C(=O)O)C[C@@H]1O; experiment: Kinetic studies of modified (tagged) CMP-NeuAc synthetase; assay type: biochemical, E. coli; settings: other: pH 9.0, 37° C.
Method: (§6) The construction of plasmid CMPSIL-1, which contains the modified CMP-NeuAc synthetase gene (Example 2), was accomplished by the method of Ichikawa et al., J. Am. Chem. Soc., 113:4698 (1991). The CMP-NeuAc synthetase gene was fused with the decapeptide tag sequence Tyr-Pre-[…](SEQ ID NO:3) at the C-terminus, cloned into a lambda ZAP™ vector at EcoRI and XbaI sites and overexpressed in E. coli Sure strain.
(§7) The activity of the native or the modified CMP-NeuAc synthetase was assayed using a thiobarbituric acid method described by Vann et al., J. Biol. Chem., 262:17556 (1987). Briefly, the enzyme was added to a […] buffer containing 5.5 mM CTP, 2.8 mM N-acetylneuraminic acid, 0.2 M Tris, 20 mM MgCl2 and 0.2 mM DTT, pH 9.0, to form a mixture. After the mixture was incubated at 37° C. for 30 minutes, 50 mL of 1.6 M NaBH4 was added to destroy excess NeuAc, and the mixture was heated at room temperature for an additional 15 minutes. The mixture was then put in the ice bath and 50 mL of H3 PO4 were added to destroy NaBH4.
(§8) The resulting mixture was kept at zero degrees C for five minutes then incubated at 37° C. for 10 minutes to cleave the phosphoester bond of the formed CMP-NeuAc. The free NeuAc was oxidized with 50 mL of 0.2 M NaIO4 at room temperature for 10 minutes, and 400 mL of 4 percent NaAsO2 in 0.5 N HCl were added. The solution mixture was the transferred to a test tube containing 1 mL of 0.6 percent thiobarbituric acid in 0.5 M Na2 SO4, and heated in boiled water for 15 minutes. After the solution was cooled, 1 mL of the solution was taken out and mixed with 1 mL of cyclohexanone. That mixture was shaken and centrifuged, and the upper layer was taken for measurement at 549 nm (e=4.11 mM^-1 cm^-1).
(§9) Initial velocities were measured at various concentrations of CTP (1.25-5 mM) and NeuAc (2-8 mM) for kinetic studies. The data were fitted into the sequential bi-bi substrate rate equation 3, shown below, to derive the Michaelis constants and maximum velocity (V) using a Sigma plot program from Sigma Co. [formula] […]

[7] = test system: Nc1ccn([C@@H]2O[C@H](COP(=O)(O)OP(=O)(O)OP(=O)(O)O)[C@@H](O)[C@H]2O)c(=O)n1; experiment: as above; assay type: biochemical, E. coli; settings: other: pH 9.0, 37° C.
Method: as §6, §7, §8, §9

[8] = target: E. coli CMP-sialic acid synthetase (CMP-NeuAc synthetase, EC 2.7.7.43), native enzyme (Escherichia coli O18:K1:H7, UniProt P13266); experiment: Kinetic studies of native CMP-NeuAc synthetase; settings: pH 9.0, 37° C.
E. coli CMP-sialic acid synthetase (CMP-NeuAc synthetase, EC 2.7.7.43), native enzyme, sequence (P13266 whole entry): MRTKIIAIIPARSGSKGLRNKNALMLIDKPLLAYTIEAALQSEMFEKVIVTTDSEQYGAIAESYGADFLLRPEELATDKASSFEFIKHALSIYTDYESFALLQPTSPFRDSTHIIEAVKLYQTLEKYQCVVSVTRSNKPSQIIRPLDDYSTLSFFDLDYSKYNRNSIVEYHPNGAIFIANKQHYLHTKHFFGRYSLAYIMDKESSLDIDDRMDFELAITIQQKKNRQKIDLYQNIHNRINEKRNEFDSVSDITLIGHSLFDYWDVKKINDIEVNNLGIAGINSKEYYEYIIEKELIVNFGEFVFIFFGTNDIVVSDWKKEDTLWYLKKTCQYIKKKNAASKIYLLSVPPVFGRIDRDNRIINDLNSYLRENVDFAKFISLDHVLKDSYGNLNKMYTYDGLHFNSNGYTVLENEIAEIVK
Method: as §10, §11, §12

β-galactosidase (EC 3.2.1.23 from E. coli), sequence (P00722 2-1024): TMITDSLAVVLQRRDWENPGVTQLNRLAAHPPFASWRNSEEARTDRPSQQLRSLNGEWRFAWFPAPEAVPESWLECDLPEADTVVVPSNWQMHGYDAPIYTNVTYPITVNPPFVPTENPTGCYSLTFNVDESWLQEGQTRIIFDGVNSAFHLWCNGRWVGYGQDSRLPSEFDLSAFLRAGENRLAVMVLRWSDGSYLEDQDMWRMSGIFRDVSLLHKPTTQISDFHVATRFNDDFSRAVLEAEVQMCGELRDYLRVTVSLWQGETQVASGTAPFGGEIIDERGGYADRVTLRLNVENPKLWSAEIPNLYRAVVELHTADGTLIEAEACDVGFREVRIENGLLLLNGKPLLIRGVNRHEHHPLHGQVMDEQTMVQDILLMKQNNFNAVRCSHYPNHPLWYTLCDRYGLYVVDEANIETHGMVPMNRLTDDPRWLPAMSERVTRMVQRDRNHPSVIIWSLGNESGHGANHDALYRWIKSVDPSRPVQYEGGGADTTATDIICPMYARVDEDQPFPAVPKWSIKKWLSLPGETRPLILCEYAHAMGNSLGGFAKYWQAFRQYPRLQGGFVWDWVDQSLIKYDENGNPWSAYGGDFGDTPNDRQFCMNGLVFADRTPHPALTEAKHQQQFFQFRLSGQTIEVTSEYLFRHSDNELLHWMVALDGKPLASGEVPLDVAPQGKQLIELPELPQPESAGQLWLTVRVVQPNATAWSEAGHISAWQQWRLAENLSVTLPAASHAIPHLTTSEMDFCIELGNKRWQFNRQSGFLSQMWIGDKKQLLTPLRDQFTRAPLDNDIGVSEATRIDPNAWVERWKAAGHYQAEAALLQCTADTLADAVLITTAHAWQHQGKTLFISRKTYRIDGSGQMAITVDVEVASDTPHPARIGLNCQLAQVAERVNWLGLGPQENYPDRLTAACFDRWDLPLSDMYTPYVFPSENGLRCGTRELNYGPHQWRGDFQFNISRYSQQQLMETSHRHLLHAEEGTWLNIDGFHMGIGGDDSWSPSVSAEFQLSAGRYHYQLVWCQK

Compound: C[C@@H]1[C@@H](O)[C@H](O)[C@@H](O)C[N@+]1(C)[O-] [Compound 118, (1,2R)-dimethyl-(3R,4R,5S)-trihydroxypiperidine oxide]
Ki [1]: 6950 µM
Ki [2]: 1490 µM

IC50 ([3]; Example 8): ~40000 µM
IC50 ([3]; Table 1a, 14C-GDP-fucose, pH 6.2, 37° C., IC50 extrapolated from linear fit): 40000 µM
Compound: OC[C@H]1NC[C@H](O)[C@@H](O)[C@@H]1O[C@@H]1O[C@H](CO)[C@H](O)[C@H](O)[C@H]1O [Compound 10a, 6-D-Galactopyranosyl-(1,4) -deoxynojirimycin]

Compound: E. coli CMP-sialic acid synthetase (CMP-NeuAc synthetase, EC 2.7.7.43), native enzyme (Escherichia coli RS218)
Km [4]: 0.31 mM

Compound: OC[C@H]1NC[C@H](O)[C@@H](O)[C@@H]1O [Compound 3]
inhibition of β-galactosidase [5]: Neither azasugar was an inhibitor

Compound: C[C@@H]1[C@@H](O)[C@H](O)[C@@H](O)CN1C [Compound 117, (1,2R)-dimethyl-(3R,4R,5S)-trihydroxypiperidine]
Ki [1]: 1780 µM
Ki [2]: 140 µM

inhibitory effect [3]: did not exhibit any inhibitory effect
Compound: OC[C@H]1O[C@@H](O[C@H]2[C@H](O)C=CO[C@@H]2CO)[C@H](O)[C@@H](O)[C@H]1O [Compound 8, P-D-Galactopyranosyl-(1,4)-D-glucal]

Compound: C[C@H]1NC[C@H](O)[C@@H](O)[C@@H]1O [Compound 103c, (2R)-methyl-(3R,4R,5S)-trihydroxypiperidine]
Ki [1]: 1560 µM
Ki [2]: 780 µM

Compound: E. coli CMP-sialic acid synthetase (CMP-NeuAc synthetase, EC 2.7.7.43), modified (tagged) enzyme with C-terminal decapeptide tag, SEQ ID NO:3 (Escherichia coli RS218)
Km [6]: 4.8 mM
kcat [6]: 1.9 s⁻¹
Km [7]: 1.99 mM

inhibitory effect [3]: did not exhibit any inhibitory effect
Compound: C=CCO[C@@H]1O[C@H](CO)[C@@H](O[C@@H]2O[C@H](CO)[C@H](O)[C@H](O)[C@H]2O)C[C@H]1NC(C)=O [Compound 2i, Allyl β-D-galactopyranosyl-(1,4)-2-acetamido-2,3-dideoxy-β-D-glucopyranoside]

Compound: CC(=O)N[C@H]1[C@H]([C@H](O)[C@H](O)CO)OC(O)(C(=O)O)C[C@@H]1O (stereo partly drawn) [NeuAc, N-acetylneuraminic acid]
Km ([8]; read-out: Km for NeuAc): 4 mM
kcat ([8]; substrates NeuAc and CTP): 1.8 s⁻¹

Compound: C[C@H]1NC[C@H](O)[C@@H](O)[C@@H]1O [Compound 4]
inhibition of β-galactosidase [5]: Neither azasugar was an inhibitor
